{"source": "patent US20240269292A1", "key": {"[1]": {"test_system": "retinal pigment epithelium (RPE) cells", "assay": "Actin cytoskeleton disorganization (phalloidin) in HQ-exposed RPE cells", "assay_type": "cell-based", "details": "5 μM", "procedure": "(§1) Cells are then treated with drug (or control phosphate-buffered saline (PBS) solution) and assayed for effects on mitochondrial dysfunction and other cellular changes.\n(§2) Mitochondrial dysfunction can be modeled using in vitro cell culture systems relevant to retinal disease. In one such system, retinal pigment epithelium (RPE) cells are cultured to post-confluence to establish a differentiated cell monolayer and are then assayed for mitochondrial dysfunction and effect of drugs for treatment of mitochondrial dysfunction (FIG. 5). In this model, mitochondrial dysfunction is induced by two exposures to nonlethal doses of hydroquinone (HQ) at day −3 and day 0. Hydroquinone (HQ), a well-known environmental toxicant ubiquitously present in Western lifestyle, is a biochemical inducer of mitochondrial dysfunction. […] Cells are then treated with a drug of interest (mitochondrial targeted peptide drug or a prodrug thereof) or control (phosphate-buffered saline (PBS) solution and assayed for effects on mitochondrial dysfunction, as measured by microscopy of flavoprotein autofluorescence (a measure of mitochondrial electron transport chain complex II decompensation) (FIG. 6)."}, "[2]": {"test_system": "mouse retinal tissues", "assay": "Mouse experimental retinal vein occlusion (RVO) model", "assay_type": "in vivo", "excerpt": "Control, untreated mice show undetectable FP-AF and superoxide.\nControl, untreated mice show normal synaptic markers.\nFIGS. 11H-111 show visual function as quantified by electroretinogram (ERG) in mice treated with control, RVO and RVO with EY005 pretreatment or EY005 post-treatment. B-wave amplitudes were quantified from at least 5 eyes for each condition."}, "[3]": {"test_system": "RPE cells of rabbit eyes", "assay": "Rabbit ocular hydroquinone (HQ) model of dry AMD (DCFDA, vimentin, phalloidin on RPE flatmounts)", "assay_type": "in vivo", "procedure": "FIG. 12 illustrates one example of a relevant animal model, specifically a rabbit-based protocol used to characterize the prodrugs of mitochondrial targeted tetrapeptides described herein. In this model, HQ (0.05 mL, 250 mM HQ) is injected into the vitreous cavity of rabbit eye on day 0 and day 1, and drug of interest (mitochondrial targeted peptide or prodrug thereof) or control (PBS) solution is injected into the same vitreous cavity of the rabbit eye at day 2. At day 4, the rabbit is euthanized, and eyes recovered for histologic analysis of retina and RPE flatmounts for various metrics, including cellular oxidation (DCFDA), as a surrogate of mitochondrial dysfunction, as well as for other cellular markers.\nThe rabbit hydroquinone (HQ) model of dry AMD (FIG. 12) was induced and flatmount of retinal pigment epithelium (RPE) were isolated.\nScores were determined by masked expert graders in at least 100 RPE cells from at least 3 eyes per condition.\nA rabbit model of mitochondrial dysfunction is also used to assay bioactivity of MTT and prodrugs derived thereof. […] On day 2, the MTT (e.g., EY005, 15 μM) were injected IVT. On day 3, a fluorogenic dye that measures hydroxyl, peroxyl and other reactive oxygen species (e.g., DCFDA) was injected IVT, and tissues were collected 12 hours later. RPE flatmounts were processed for multiple readouts: oxidation byproducts (DCFDA, FIG. 13) and measures of RPE-associated extracellular matrix (cytosolic vimentin expression, FIG. 14), and RPE cell dysmorphology (i.e., actin cytoskeleton (phalloidin), FIG. 14). All were analyzed and quantified by microscopy.\nFor example, in the rabbit ocular hydroquinone model, systemic administration of the maximally tolerated human dose of mitochondrial-targeted peptide (EY005) allometrically scaled for the rabbit, only partially restores RPE actin cytoskeletal integrity (FIG. 15D). In contrast, IVT injection of EY005 results in downregulation of RPE vimentin expression (FIG. 14) and restoration of normal RPE actin cytoskeleton integrity (FIG. 15C). […] IVT EY005 treatment produced an approximately 75% reduction of oxidation byproducts. […] In this setting, retinal and RPE tissue levels achieved by IVT administration in rabbits are substantially higher than tissue levels obtained by SQ administration of the maximally tolerated human dose allometrically scaled for rabbits."}, "[4]": {"details": "rabbit", "excerpt": "In some examples, cleavage and release of the free bioactive mitochondrial targeted tetrapeptide can be assessed following in vivo injection of the implant containing the prodrug within the extended release drug delivery system into the vitreous cavity or periocular tissues of a preclinical animal model (e.g., mouse, rat, rabbit, pig, etc.) (FIG. 29), wherein ocular tissue is recovered, and analytic methods such as HPLC or mass spectrometry can be used to calculate the amount of free bioactive mitochondrial targeted tetrapeptide and intact prodrug, at various timepoints after in vivo injection."}, "[5]": {"test_system": "retinal pigment epithelium (RPE) cells", "assay": "Dysregulated extracellular matrix (vimentin) in HQ-exposed RPE cells", "assay_type": "cell-based", "details": "≥5 μM", "procedure": "as §1, §2"}, "[6]": {"test_system": "retinal pigment epithelium (RPE) cells", "assay": "HQ-induced mitochondrial dysfunction in RPE cells (flavoprotein autofluorescence)", "assay_type": "cell-based", "details": "HQ-exposed RPE cells, versus elamipretide or native EY005", "procedure": "as §1, §2"}, "[7]": {"assay": "In vitro release kinetics of pilot formulation of Mito XR", "assay_type": "physicochemical", "details": "same complexation agent and dispersal medium as Mito XR"}, "[8]": {"assay": "Theoretical in vivo release pharmacokinetics from XRDDS in vitreous cavity of rabbit eyes (FIGS. 31-32)", "details": "theoretical data", "excerpt": "(§3) FIG. 31 illustrates theoretical in vivo release pharmacokinetic data comparing release kinetics of unmodified EY005 from the novel extended-release drug delivery system to that of two EY005 prodrugs, each of which is also formulated in the novel extended-release drug delivery system and injected into the vitreous cavity of rabbit eyes.\nas §3, with “32” for “31”"}, "[9]": {"assay": "In vivo kinetics after intravitreal Mito XR bolus in rabbit eyes, LC/MS"}, "[10]": {"assay": "Hydrophobicity and aqueous solubility", "assay_type": "physicochemical"}, "[11]": {"test_system": "retinal pigment epithelium (RPE) cells", "assay_type": "cell-based", "procedure": "as §1\nMitochondrial dysfunction is manifest as increased flavoprotein autofluorescence (upper panels) and as dysmorphology of the actin cytoskeleton (lower panels). […] EY005-stearyl was also preincubated with carboxyesterase (0.1 μg/mL) in separate media.\nMitochondrial dysfunction can be modeled using in vitro cell culture systems relevant to retinal disease. In one such system, retinal pigment epithelium (RPE) cells are cultured to post-confluence to establish a differentiated cell monolayer and are then assayed for mitochondrial dysfunction and effect of drugs for treatment of mitochondrial dysfunction (FIG. 5). In this model, mitochondrial dysfunction is induced by two exposures to nonlethal doses of hydroquinone (HQ) at day −3 and day 0. Hydroquinone (HQ), a well-known environmental toxicant ubiquitously present in Western lifestyle, is a biochemical inducer of mitochondrial dysfunction. When HQ is added to fully differentiated RPE cell cultures, HQ competes with mitochondrial ubiquinone, siphoning high-energy electrons from electron transport chain, which then reduces oxygen into superoxide, leading to cardiolipin peroxidation and mitochondrial dysfunction. Cells are then treated with a drug of interest (mitochondrial targeted peptide drug or a prodrug thereof) or control (phosphate-buffered saline (PBS) solution and assayed for effects on mitochondrial dysfunction, as measured by microscopy of flavoprotein autofluorescence (a measure of mitochondrial electron transport chain complex II decompensation) (FIG. 6)."}, "[12]": {"test_system": "rabbit RPE", "assay": "Rabbit ocular hydroquinone (HQ) model of dry AMD", "assay_type": "in vivo"}, "[13]": {"assay": "Accelerated in vitro release assay with complexation agents in methyl laurate", "assay_type": "physicochemical", "details": "EY005 MTT formulated with various complexation agents, methyl laurate dispersal medium", "excerpt": "In all cases, all EY005 was rapidly released, in some cases within hours, and in all cases by day 3."}, "[14]": {"details": "rabbit, single IVT dose of 15 μg, 36 hrs. after drug treatment"}, "[15]": {"details": "cultured RPE cells, dose-response"}, "[16]": {"details": "cultured RPE cells, high dose (≥5 μM)"}}, "note": "Entries after “also recorded” stand apart in the source; their conditions may differ. Non-standard residues stand in square brackets, D forms with d. Residues, ends and D or L forms follow the SMILES beside them. Dmt = Cc1cc(O)cc(C)c1C[C@H](N)C(=O)O", "data": [{"smiles": "Cc1cc(O)cc(C)c1C[C@H](NC(=O)[C@H](N)CCCNC(=N)N)C(=O)N[C@@H](CCCCN)C(=O)N[C@@H](Cc1ccccc1)C(=O)O", "note": "[EY005, H-d-Arg-DMT-Lys-Phe] (H-[dR][Dmt]KF-OH)", "values": [{"measurement": "Reversal of actin cytoskeleton disorganization", "setting": "[1]", "result": "restores normal RPE cell morphology"}, {"measurement": "markers of mitochondrial dysfunction (flavoprotein autofluorescence and superoxide) following RVO", "setting": "[2]; mouse, 3 mg/kg BID subcutaneous", "result": "significantly attenuates both markers of mitochondrial dysfunction"}, {"measurement": "synaptic markers (SV2, ZNP-1) in inner and outer plexiform layers following RVO", "setting": "[2]; mouse, 3 mg/kg BID subcutaneous, pretreatment or posttreatment", "result": "significantly prevents (pretreatment) and reverses (posttreatment) loss of synaptic markers"}, {"measurement": "ERG B-wave amplitude following RVO", "setting": "[2]; mouse, pretreatment or post-treatment", "result": "significantly prevented or reversed loss of B-wave amplitude"}, {"measurement": "efficacy in treatment of mouse model of RVO", "setting": "[2]; systemic dose greater than the maximally tolerated dose in humans (allometrically scaled)", "result": "partially effective"}, {"measurement": "reversal of mitochondrial dysfunction (oxidant species) in RPE of rabbit eyes", "setting": "[3]; rabbit HQ model, 15 μM IVT, within 36 hours of treatment", "result": "reduced oxidant species; also recorded: potent for reversal of mitochondrial dysfunction"}, {"measurement": "reversal of RPE cytoskeletal dysmorphology, intravitreal", "setting": "[3]; rabbit HQ model, intravitreal 15 μM", "result": "near complete reversal of RPE cytoskeletal dysmorphology"}, {"measurement": "reversal of RPE cytoskeletal dysmorphology, subcutaneous", "setting": "[3]; rabbit HQ model, subcutaneous 0.9 mg/kg once daily", "result": "only partial reversal of RPE cytoskeletal dysmorphology"}, {"measurement": "retinal toxicity", "setting": "[3]; rabbit, single IVT dose of 15 μg", "result": "no retinal toxicity was observed"}, {"measurement": "reduction of cytoskeleton disorganization (phalloidin)", "setting": "[3]; [14]", "result": "approximately 80%"}, {"measurement": "reduction of oxidation byproducts (DCFDA)", "setting": "[3]; [14]", "result": "approximately 75%"}, {"measurement": "reversal of vimentin stain", "setting": "[3]; [14]", "result": "approximately 90%"}, {"measurement": "residual drug in recovered bolus, native peptide formulation", "setting": "[4]; IVT bolus formulation of EY005 native peptide", "result": "contained no EY005 native peptide; also recorded: no residual drug in the recovered bolus"}, {"measurement": "time by which tissue concentrations were nearly undetectable", "setting": "[4]; IVT identical bolus formulation containing EY005 native peptide", "result": "≤ 3.5", "unit": "week"}, {"measurement": "time beyond which EY005 tissue levels were not detectable", "setting": "[4]; IVT multiphasic colloidal suspension bolus of EY005 native peptide", "result": "≤ 21", "unit": "days"}, {"measurement": "Reversal of dysregulated extracellular matrix (vimentin)", "setting": "[5]", "result": "reverses dysregulation of RPE extracellular matrix"}, {"measurement": "Potency for reversal of mitochondrial dysfunction relative to comparator", "setting": "[6]", "result": "equipotent to elamipretide"}, {"measurement": "release of native peptide formulated identically to Mito XR", "setting": "[7]", "result": "extremely rapid release; also recorded: excessive release"}, {"measurement": "time to nearly complete release of unmodified EY005 from XRDDS", "setting": "[8]", "result": "approximately 30 days"}, {"measurement": "Residual drug in recovered bolus", "setting": "[9]; bolus formulation of EY005 native peptide", "result": "no residual drug"}, {"measurement": "Retinal tissue concentrations", "setting": "[9]; through 7-week timepoint (Mito XR), week 3.5 (EY005 native peptide bolus)", "result": "nearly undetectable"}, {"measurement": "Hydrophobicity", "setting": "[10]", "result": "highly hydrophilic"}, {"measurement": "Aqueous solubility", "setting": "[10]; native form", "result": "high aqueous solubility"}, {"measurement": "reversal of HQ-induced mitochondrial dysfunction (flavoprotein autofluorescence)", "setting": "[11]; HQ-exposed cultured RPE cells", "result": "reversal of induced mitochondrial dysfunction; also recorded: near complete reversal of mitochondrial dysfunction"}, {"measurement": "efficacy and potency for reduction of flavoprotein autofluorescence compared to elamipretide", "setting": "[11]; HQ-exposed cultured RPE cells, dose-response", "result": "equivalent efficacy and potency; also recorded: comparable or equivalent dose-response and potency to elamipretide"}, {"measurement": "efficacy and potency for reversal of actin cytoskeleton disorganization compared to elamipretide", "setting": "[11]; [15]", "result": "equivalent efficacy and potency"}, {"measurement": "efficacy and potency for reversal of dysregulated extracellular matrix (vimentin) compared to elamipretide", "setting": "[11]; [15]", "result": "equivalent efficacy and potency"}, {"measurement": "reversal of actin cytoskeleton disorganization (phalloidin staining)", "setting": "[11]; [16]", "result": "reversal of actin cytoskeleton disorganization"}, {"measurement": "reversal of dysregulated extracellular matrix (vimentin expression)", "setting": "[11]; [16]", "result": "reversal of dysregulated extracellular matrix"}, {"measurement": "Reversal of RPE cytoskeletal dysmorphology", "setting": "[12]; 0.9 mg/kg subcutaneous once daily", "result": "only partially effective"}, {"measurement": "Efficacy of intravitreal versus subcutaneous administration", "setting": "[12]; intravitreal injection", "result": "significantly more effective"}, {"measurement": "time by which all EY005 was released", "setting": "[13]", "result": "≤ 3", "unit": "days"}]}]}
